Data as given in patent EP0181109B1, “N6-benzopyrano- and benzothiopyrano-adenosines” (WARNER-LAMBERT COMPANY, priority 1984, dated 1986).

Tests used:
spontaneous locomotion = assay: Mouse Activity and Screen Test Procedure (MAST): locomotor activity in actophotometer; format: in vivo, Swiss-Webster male mice; conditions: one hour prior to testing
Description: (§1) Nine unfasted Swiss-Webster male mice weighing 20-30 g are equally divided into three groups for each drug dose to be tested. There is, data for each dose level was generated by three separate groups of three mice each.
(§2) A minimum of three dose levels (10, 30, and 100 mg/kg) are tested for each drug. Treatments are administered intraperitoneally one hour prior to testing. All dosages are calculated as parent compound and given in volumes of 10 ml/kg. Compounds are dissolved or suspended in 0.2% Methocel. Control animals are injected with Methocel.
The actophotometer consists of a cylindrical chamber whose center is occupied by another cylinder which contains the illumination for six photocells located on the perimeter of the chamber. Six light-beam interruptions equal one count. Locomotor activity is recorded by computer at ten minute intervals for 60 minutes.
Data: The data obtained from the screen test are expressed as percent of mice falling off the screen. Data derived from locomotor activity of drug treated mice are compared to the activity of vehicle treated animals and are expressed as percent inhibition of spontaneous locomotion. All percentages reported for inhibition of locomotion (LI) are based upon data accumulated for one hour. […] An overall dose rating is obtained by the following criteria:
LAD refers to the lowest dose at which an A rating is achieved. […] The compounds are identified in the Examples.

[1] = system: mice falling off the inverted screen; assay: Mouse Activity and Screen Test Procedure (MAST): screen test (ST); format: in vivo, Swiss-Webster male mice; conditions: one hour postinjection, percent of mice falling off the screen
From the text: The compounds of the invention are new chemical substances which are useful as pharmaceutical agents for the treatment of psychoses. The antipsychotic activity of representative compounds of the invention was established by the Mouse Activity and Screen Test Procedure (MAST) described below.
as §1, §2
Testing: A two part testing procedure is started one hour postinjection. First, the screen test (ST) is performed (see Pharmac. Biochem. Behav. 6,351-353,1977). Briefly this test consists of placing mice on individual wire screens which are then rotated 180 degrees at the start of a 60 second observation period. The number of mice falling off the inverted screen is recorded.
Data: The data obtained from the screen test are expressed as percent of mice falling off the screen. Data derived from locomotor activity of drug treated mice are compared to the activity of vehicle treated animals and are expressed as percent inhibition of spontaneous locomotion. All percentages reported for inhibition of locomotion (LI) are based upon data accumulated for one hour. Both phases of testing are graded: A=60-100%; C=31-59%; and N=0-30%. An overall dose rating is obtained by the following criteria:
LAD refers to the lowest dose at which an A rating is achieved. […] Utilizing this procedure, an overall dose rating of A was obtained for the noted compound at the indicated dose. The compounds are identified in the Examples.

adenosine A2 receptor = target: T1, adenosine A2 receptor (Rattus norvegicus, UniProt P30543); assay: Adenosine Receptor Binding - A2 Receptor Affinity (RBA2), [3H]NECA displacement in striatal membranes; conditions: 4 nM [3H]NECA, 50 nM N6-cyclopentyladenosine, 60 minutes at 25°C, read-out: RBA-2 (IC50, A2 receptor affinity)
T1 construct: Brains were thawed and then kept on ice while the striata were dissected out; tissue Pel-Freez (Rogers, Arkansas); host or cells: rat striatum (membranes)
T1 sequence (P30543 whole entry): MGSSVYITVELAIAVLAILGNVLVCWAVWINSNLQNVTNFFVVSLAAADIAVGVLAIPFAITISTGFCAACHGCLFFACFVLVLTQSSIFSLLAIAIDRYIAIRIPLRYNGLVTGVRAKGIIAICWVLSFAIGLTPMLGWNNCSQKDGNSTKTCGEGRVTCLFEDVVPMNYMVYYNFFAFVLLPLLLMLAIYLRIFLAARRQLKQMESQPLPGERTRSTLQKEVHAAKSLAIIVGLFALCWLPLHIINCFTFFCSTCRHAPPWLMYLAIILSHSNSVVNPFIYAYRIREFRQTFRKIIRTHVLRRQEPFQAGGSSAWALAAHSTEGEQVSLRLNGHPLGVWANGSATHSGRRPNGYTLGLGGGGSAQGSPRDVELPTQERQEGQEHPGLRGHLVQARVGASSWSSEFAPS
Description: Brains from 200-500 g mixed sex Sprague-Dawley rats were purchased from Pel-Freez (Rogers, Arkansas). Fresh brains from male Long-Evans hooded rats (Blue Spruce Farms, Altamont, NY) gave essentially identical results. Brains were thawed and then kept on ice while the striata were dissected out. Striata were disrupted in 10 vol of ice-cold 50 mM Tris·HCl (pH 7.7 at 25°C, pH 8.26 at 5°C) (Tris) for 30 seconds in a Polytron PT―10 (Brinkmann) at setting 5. The suspension was centrifuged at 50,000 xg for ten minutes, the supernatant discarded, the pellet resuspended in 10 vol ice-cold Tris as above, recentrifuged, resuspended at 1 g/5 ml, and stored in plastic vials at -70°C (stable for at least six months). When needed, tissue was thawed at room temperature, disrupted in a Polytron, and kept on ice until used.
All incubations were for 60 minutes at 25°C in 12 x 75 mm glass tubes containing 1 ml Tris with 5 mg original tissue weight of rat weight of rat striatal membranes, 4 nM [^3H]-N-ethyl adenosine-5'-carboxamide ([^3H]NECA), 50 nM N^s-cyclopentyladenosine (to eliminate A1 receptor binding), 10 mM MgCI2, 0.1 units/ml of adenosine deaminase and 1% dimethylsulfoxide. N^6-Cyclopentyladenosine was dissolved at 10 mM in 0.02 N HCI and diluted in Tris. Stock solutions and dilutions of N^6-cyclopentyladenosine could be stored at -20°C for several months. Test compounds were dissolved at 10 mM in dimethylsulfoxide on the same day as the experiment, and diluted in dimethylsulfoxide to 100x the final incubation concentration. Control incubations received an equal volume (10 µl) of dimethylsulfoxide; the resulting concentration of dimethylsulfoxide had no effect on binding. [^3H]NECA was diluted to 40 nM in Tris. The membrane suspension (5 mg/0.79 ml) contained sufficient MgC12 and adenosine deaminase to give 10 mM and 0.1 units/ml, respectively, final concentration in the incubation. […] After all additions, the rack of tubes was vortexed, and the tubes were then incubated for 60 min at 25°C in a shaking water bath. The rack of tubes was vortexed an additional time halfway through the incubation.
Incubations were terminated by filtration through 2.4 cm GF/B filters under reduced pressure. Each tube was filtered as follows: the contents of the tube were poured onto the filter, 4 ml of ice-cold Tris were added to the tube and the contents poured onto the filter, and the filter was washed twice with 4 ml of ice-cold Tris. The filtration was complete in about 12 seconds. Filters were put in scintillation vials, 8 ml of Formula 947 scintillation fluid added, and the vials left overnight, shaken, and counted in a liquid scintillation counter at 40% efficiency.
Nonspecific binding was defined as binding in the presence of […] N^6-cyclopentyladenosine, and specific binding was defined as total binding minus nonspecific binding. The IC50 was calculated by weighted nonlinear least squares curve-fitting to the mass action equation. [formula] • where Y is cpm bound • T is cpm total binding without drug • S is cpm specific binding without drug • D is the concentration of drug • and K is the IC50 of the drug Weighting factors were calculated under the assumption that the standard deviation was proportional to the predicted value of Y. Nonspecific binding was treated as a very large (infinite) concentration of drug in the computer analysis.

Screen Test Failure ([1]; 1 mg/kg intraperitoneally) [%]	Screen Test Failure ([1]; 3 mg/kg intraperitoneally) [%]	Screen Test Failure ([1]; 10 mg/kg intraperitoneally) [%]	Screen Test Failure ([1]; 30 mg/kg intraperitoneally) [%]	Screen Test Failure ([1]; 100 mg/kg intraperitoneally) [%]	IC50 (adenosine A2 receptor) [nM]	Screen Test Failure ([1]; 0.3 mg/kg intraperitoneally) [%]	Screen Test Failure ([1]; 9.0 mg/kg intraperitoneally) [%]	SMILES	Inhibition of Mouse Locomotion Activity (spontaneous locomotion; 1 mg/kg intraperitoneally) [%]	Inhibition of Mouse Locomotion Activity (spontaneous locomotion; 3 mg/kg intraperitoneally) [%]	Inhibition of Mouse Locomotion Activity (spontaneous locomotion; 10 mg/kg intraperitoneally) [%]	Inhibition of Mouse Locomotion Activity (spontaneous locomotion; 30 mg/kg intraperitoneally) [%]	Inhibition of Mouse Locomotion Activity (spontaneous locomotion; 100 mg/kg intraperitoneally) [%]	Inhibition of Mouse Locomotion Activity (spontaneous locomotion; 0.3 mg/kg intraperitoneally) [%]	Inhibition of Mouse Locomotion Activity (spontaneous locomotion; 9.0 mg/kg intraperitoneally) [%]
0	11	0	11	33	490	–	–	C[C@H]1Oc2ccccc2C[C@@H]1Nc1ncnc2c1ncn2[C@@H]1O[C@H](CO)[C@@H](O)[C@H]1O (relative stereo) [Example 8, N^l-[trans-2-Methyl,-3-chromanylamino]adenosine]	52	84	95	98	99	–	–
–	33	33	22	–	600	–	–	OC[C@H]1O[C@@H](n2cnc3c(NC4CCOc5ccccc54)ncnc32)[C@H](O)[C@@H]1O (some centres unmarked) [Example 1]	–	91	94	97	–	–	–
0	0	22	22	–	1360	–	–	COc1ccc2c(c1)OCC(Nc1ncnc3c1ncn3[C@@H]1O[C@H](CO)[C@@H](O)[C@H]1O)C2 (some centres unmarked) [Example 3]	25	58	89	97	–	–	–
22	11	11	100	88	610	–	–	OC[C@H]1O[C@@H](n2cnc3c(NC4COc5ccccc5C4)ncnc32)[C@H](O)[C@@H]1O (some centres unmarked) [Example 4, N^6-[3-Chromanylamino]adenosine]	36	87	94	99	98	–	–
0	0	22	55	44	210	–	–	OC[C@H]1O[C@@H](n2cnc3c(NC4COc5c(Cl)cccc5C4)ncnc32)[C@H](O)[C@@H]1O (some centres unmarked) [Example 5]	-14	30	89	97	99	–	–
0	0	77	99	99	1090	–	–	COc1ccc2c(c1)CC(Nc1ncnc3c1ncn3[C@@H]1O[C@H](CO)[C@@H](O)[C@H]1O)CO2 (some centres unmarked) [Example 6]	45	77	98	98	100	–	–
0	22	–	100	–	1840	0	55	CC1Oc2ccccc2CC1Nc1ncnc2c1ncn2C1OC(CO)C(O)C1O (stereo not drawn) [Example 7, N^6-[cis-2-Methyl-3-chromanylamino]adenosine]	57	95	–	93	–	6	96
0	0	22	44	77	1240	–	–	Cc1cc2c(cc1C)OCC(Nc1ncnc3c1ncn3[C@@H]1O[C@H](CO)[C@@H](O)[C@H]1O)C2 (some centres unmarked) [Example 9, N^6-[6,7-Dimethyl-3-chromanylamino]adenosine]	11	34	77	96	97	–	–
0	0	11	22	55	942	–	–	Cc1ccc2c(c1C)OCC(Nc1ncnc3c1ncn3[C@@H]1O[C@H](CO)[C@@H](O)[C@H]1O)C2 (some centres unmarked) [Example 10, N^6-[7,8-Dimethyl-3-chromanylamino]adenosine]	-8	33	85	91	96	–	–

SMILES	Screen Test Failure ([1]; 1 mg/kg intraperitoneally) [%]	Screen Test Failure ([1]; 3 mg/kg intraperitoneally) [%]	Screen Test Failure ([1]; 10 mg/kg intraperitoneally) [%]	Screen Test Failure ([1]; 30 mg/kg intraperitoneally) [%]	Screen Test Failure ([1]; 100 mg/kg intraperitoneally) [%]	IC50 (adenosine A2 receptor) [nM]	Screen Test Failure ([1]; 0.3 mg/kg intraperitoneally) [%]	Screen Test Failure ([1]; 9.0 mg/kg intraperitoneally) [%]	Inhibition of Mouse Locomotion Activity (spontaneous locomotion; 1 mg/kg intraperitoneally) [%]	Inhibition of Mouse Locomotion Activity (spontaneous locomotion; 3 mg/kg intraperitoneally) [%]	Inhibition of Mouse Locomotion Activity (spontaneous locomotion; 10 mg/kg intraperitoneally) [%]	Inhibition of Mouse Locomotion Activity (spontaneous locomotion; 30 mg/kg intraperitoneally) [%]	Inhibition of Mouse Locomotion Activity (spontaneous locomotion; 100 mg/kg intraperitoneally) [%]	Inhibition of Mouse Locomotion Activity (spontaneous locomotion; 0.3 mg/kg intraperitoneally) [%]	Inhibition of Mouse Locomotion Activity (spontaneous locomotion; 9.0 mg/kg intraperitoneally) [%]
OC[C@H]1O[C@@H](n2cnc3c(NC4CSc5ccccc5C4)ncnc32)[C@H](O)[C@@H]1O (some centres unmarked) [Example 2]	11	0	11	56	100	340	–	–	34	60	96	98	99	–	–
